# US10208033B2, “β-carboline, dihydro-β-carboline and tetrahydro-β-carboline alkaloid derivatives and preparation methods same and use in aspects of preventing and treating plant viruses, fungicides and insecticides” (NANKAI UNIVERSITY, priority 2013, dated 2019)
# Where two headings read alike, the source gives them in different places.
# Tests used:
# [1] = test system: tobacco mosaic virus (TMV); test: Anti-TMV in vitro effect (half-leaf soaking); assay type: cell-based, tobacco mosaic virus (host Nicotiana tabacum L.cv.Xanthi NN)
# Bipolaria maydis = test: organism not typed; assay type: cell-based; details: 50 mg/kg
# mosquito larvae = test: whole plant or invertebrate; details: 24 h
# Protocol: Experimental method of mosquito larvae: culex pipiens pallens, a normal colony raised indoors. Weigh about 5 mg of the compound for test, put it in a penicillin vial, add 5 mL of acetone (or an appropriate solvent), and shake and dissolve it to obtain a 1000 ppm mother solution. Pipette 0.5 mL of the mother solution, add it to a 100 mL beaker filled with 89.9 mL of water, select 10 mosquito larvae at the beginning of the fourth instar, and pour them to a beaker together with 10 mL of feeding solution. The concentration of the drug solution is 5 ppm. […] Use an aqueous solution containing 0.5 mL of test solvent as a blank.
# [2] = test system: tobacco mosaic virus (TMV); test: Anti-TMV in vivo therapeutic effect; parameters: species or system tobacco mosaic virus (host Nicotiana tabacum L.cv.Xanthi NN)
# Alternaria solani = test: Fungicidal (bactericidal) activity in vitro, PDA colony diameter; assay type: cell-based; details: 50 mg/kg
# corn borers = details: concentration 600 mg/kg
# potato late blight = test: microbe, parasite or virus in culture; assay type: cell-based
# Rhizoctonia solani = test: Fungicidal (bactericidal) activity in vitro, PDA colony diameter; assay type: cell-based; details: 50 mg/kg
# Botrytis cinerea = test: as above; assay type: cell-based; details: 50 mg/kg
# [3] = test system: tobacco mosaic virus (TMV); test: Anti-TMV in vivo protective effect; parameters: species or system tobacco mosaic virus (host Nicotiana tabacum L.cv.Xanthi NN)
# Macrophoma kawatsukai = test: Fungicidal (bactericidal) activity in vitro, PDA colony diameter; assay type: cell-based; details: 50 mg/kg
# [4] = test system: tobacco mosaic virus (TMV); test: Anti-TMV in vivo inactivation; parameters: species or system tobacco mosaic virus (host Nicotiana tabacum L.cv.Xanthi NN)
# armyworms = assay type: in vivo; details: concentration 600 mg/kg
# Cercospora arachidicola = test: Fungicidal (bactericidal) activity in vitro, PDA colony diameter; assay type: cell-based
# cucumber fusarium wilt = test: as above; assay type: cell-based; details: 50 mg/kg
# Sclerotinia scleotiorum = test: as above; assay type: cell-based; details: 50 mg/kg
# [5] = test system: Colletotrichum orbiculare; test: as above; assay type: cell-based; details: 50 mg/kg
# Fusarium graminearumt = test: microbe, parasite or virus in culture; assay type: cell-based; details: 50 mg/kg
# Fusarium fujikuroi = test: Fungicidal (bactericidal) activity in vitro, PDA colony diameter; assay type: cell-based
# cotton bollworms = test: whole plant or invertebrate; details: concentration 600 mg/kg
# Protocol: Experimental method of cotton bollworms: feed and drug mixing method: measure 3 mL of prepared solution and add it to about 27 g of newly prepared feed, thereby obtaining needed concentration through dilution by 10 times.
# Phytophthora capsici = test: Fungicidal (bactericidal) activity in vitro, PDA colony diameter; assay type: cell-based; details: 50 mg/kg
# Rhizoctonia cereali = test: as above; assay type: cell-based; details: 50 mg/kg
SMILES,Relative inhibition rate (%) In vitro activity ([1]; treatment dose 100 μg/mL) [%],Relative inhibition rate (%) In vitro activity ([1]; treatment dose 500 μg/mL) [%],Bactericidal activity (%) Bipolaria maydis (Bipolaria maydis) [%],Mosquito larvae Mortality (%) (mosquito larvae; concentration 10 mg/kg),Relative inhibition rate (%) In vivo therapy ([2]; treatment dose 100 μg/mL) [%],Relative inhibition rate (%) In vivo therapy ([2]; treatment dose 500 μg/mL) [%],Bactericidal activity (%) Alternaria solani (Alternaria solani) [%],Corn borer Mortality (%) (corn borers),Bactericidal activity (%) Rhizoctonia solani (Rhizoctonia solani) [%],Bactericidal activity (%) Botrytis cinerea (Botrytis cinerea) [%],Relative inhibition rate (%) In vivo protection ([3]; treatment dose 100 μg/mL) [%],Relative inhibition rate (%) In vivo protection ([3]; treatment dose 500 μg/mL) [%],Bactericidal activity (%) Macrophoma kawatsukai (Macrophoma kawatsukai) [%],Relative inhibition rate (%) In vivo inactivation ([4]; treatment dose 100 μg/mL) [%],Relative inhibition rate (%) In vivo inactivation ([4]; treatment dose 500 μg/mL) [%],Armyworm Mortality (%) (armyworms),Bactericidal activity (%) Cucumber fusarium wilt (cucumber fusarium wilt) [%],Bactericidal activity (%) Sclerotinia scleotiorum (Sclerotinia scleotiorum) [%],Bactericidal activity (%) Colletotrichum orbiculare [5] [%],Bactericidal activity (%) Fusarium graminearumt (Fusarium graminearumt) [%],further results
"Cc1nccc2c1[nH]c1cc(OC(=O)N(C)C)ccc12 [Ia-6, dimethylcarbamate (1-methylpyridino [3,4-b]indol-7)-ester]",0,12.6,27.3,100,0,15.6,15.8,35,46.1,12.1,0,18.7,26.2,0,12,45,23.1,7.8,35.7,38.1,Mosquito larvae Mortality (%) (mosquito larvae; concentration 5 mg/kg): 20%; Bactericidal activity (%) potato late blight (potato late blight): 9.1%; Bactericidal activity (%) Cercospora arachidicola (Cercospora arachidicola; 50 mg/kg): 53.9%; Bactericidal activity (%) Fusarium fujikuroi (Fusarium fujikuroi; 50 mg/kg): 21.4%; Cotton bollworm Mortality (%) (cotton bollworms): 20%; Bactericidal activity (%) Phytophthora capsici (Phytophthora capsici): 9.4%; Bactericidal activity (%) Rhizoctonia cereali (Rhizoctonia cereali): 36.8%
"CC(=O)Oc1ccc2c(c1)[nH]c1c(C)nccc12 [Ia-7, Acetate (1-methylpyridino [3,4-b]indol-7)-ester]",0,30,21.1,65,0,24.1,33.3,25,0.0,36.4,0,27.2,5.9,0,20.3,35,14.3,76.0,33.3,35.7,Bactericidal activity (%) potato late blight (potato late blight; 50 mg/kg): 20.0%; Bactericidal activity (%) Cercospora arachidicola (Cercospora arachidicola): 35.7%; Bactericidal activity (%) Fusarium fujikuroi (Fusarium fujikuroi): 35.7%; Cotton bollworm Mortality (%) (cotton bollworms): 30%; Bactericidal activity (%) Phytophthora capsici (Phytophthora capsici): 18.2%; Bactericidal activity (%) Rhizoctonia cereali (Rhizoctonia cereali): 62.5%
